These results are taken from ChEMBL document CHEMBL1201862, “PubChem BioAssay data set” (2004).

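Interpolation was linear, between the two tested concentrations surrounding the appropriate level; five concentrations were tested over 48 hours in 96-well plates. Abbreviation: GI50, concentration required for 50% inhibition of growth.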 Calls of active or inactive are those of the source. Rule as the data show it: active = GI50 up to about 1.1 µM and inactive = higher. Bounds are passed on as bounds.

Among the test systems are EKVX; MDA-MB-231; TK-10; K562; CAKI-1; SW-620; NCI-H226; SR; SF-539; SK-MEL-2; IGROV-1; DU-145; HT-29; OVCAR-4; HOP-92; SNB-19; M14; ACHN; UACC-62; SK-OV-3.
Assay in all cases: NCI anticancer screen, dose series, 48 h

For `CCOC(=O)N1CCN(Cc2cc(=O)n3ccc(C)cc3n2)CC1`, the GI50 with EKVX, with MDA-MB-231, in the experiment on TK-10, with K562, with CAKI-1 and in the experiment with SW-620 was > 100 µM (inactive) in each case. Also, the GI50 in the experiment with NCI-H226, in the experiment on SR, in the experiment with SF-539, with SK-MEL-2, in the experiment with IGROV-1 and with DU-145 was > 100 µM (inactive) in each case. In addition, the GI50 in the experiment with HT-29, in the experiment on OVCAR-4, with HOP-92, in the experiment on SNB-19, with M14 and in the experiment with ACHN was > 100 µM (inactive) throughout. Further, the GI50 in the experiment on UACC-62 and in the experiment on SK-OV-3 was > 100 µM (inactive) in each case.

With `COc1ncc(C=C(C#N)C#N)c(OC)n1`, the GI50 is 79.8 µM (inactive) in the experiment on EKVX; 41.5 µM (inactive) in the experiment on MDA-MB-231; 37.3 µM (inactive) with TK-10; 38.6 µM (inactive) in the experiment with K562; 36.1 µM (inactive) in the experiment on CAKI-1; 26.2 µM (inactive) with SW-620. In addition, the GI50 in the experiment with NCI-H226 is > 100 µM (inactive); in the experiment with SR it was 15.3 µM (inactive); in the experiment on SF-539, 30.8 µM (inactive); with SK-MEL-2, 32.3 µM (inactive); with IGROV-1, 59.3 µM (inactive); in the experiment with DU-145, 52.5 µM (inactive). For the same molecule, the GI50 was 40 µM (inactive) in the experiment on HT-29; 48.9 µM (inactive) in the experiment with OVCAR-4; > 100 µM (inactive) with HOP-92; 52.6 µM (inactive) with SNB-19; 18.7 µM (inactive) with M14; 48.5 µM (inactive) in the experiment on ACHN. The GI50 is 33.8 µM (inactive) in the experiment with UACC-62 and > 100 µM (inactive) with SK-OV-3.

In the case of `CCOC(=O)C(C(N)=O)C1=Nc2cc([N+](=O)[O-])ccc2N/C1=C\C(=O)c1ccccc1` (stereo not given), the GI50 in the experiment with EKVX is 20.6 µM (inactive); with MDA-MB-231, 13.3 µM (inactive); with TK-10, 11 µM (inactive); with K562 it was 3.82 µM (inactive); with CAKI-1, 22.9 µM (inactive); with SW-620, 15.6 µM (inactive). Besides, the GI50 was 31.3 µM (inactive) in the experiment with NCI-H226; 3.3 µM (inactive) in the experiment on SR; 15.1 µM (inactive) in the experiment with SF-539; 15.3 µM (inactive) with SK-MEL-2; 11.2 µM (inactive) in the experiment on IGROV-1; 13.5 µM (inactive) in the experiment on DU-145. Besides, the GI50 with HT-29 is 16.5 µM (inactive); with OVCAR-4 it was 18.7 µM (inactive); with HOP-92, 15.4 µM (inactive); with SNB-19, 18.5 µM (inactive); in the experiment with M14 it was 14.7 µM (inactive); in the experiment on ACHN, 15.3 µM (inactive). For the same molecule, the figures for the GI50 in the experiment with UACC-62 and in the experiment with SK-OV-3 were 17.3 µM (inactive) and 14.1 µM (inactive), respectively.

With `O=[N+]([O-])C1=Cc2c(O)ccc(O)c2C2c3ccccc3NC12` (stereo not given), the GI50 with EKVX was 14.8 µM (inactive); in the experiment with MDA-MB-231 it was 13.6 µM (inactive); with TK-10, 16.1 µM (inactive); in the experiment on K562, 9.27 µM (inactive); in the experiment on CAKI-1, 4.36 µM (inactive); with SW-620 it was 9.1 µM (inactive). Further, the GI50 in the experiment with NCI-H226 was 61.2 µM (inactive); with SR it was 13.5 µM (inactive); with SF-539, 30.9 µM (inactive); in the experiment on SK-MEL-2, 16.9 µM (inactive); in the experiment on IGROV-1 it was 13.5 µM (inactive); in the experiment with DU-145 it was 24.7 µM (inactive). Besides, the GI50 in the experiment with HT-29 was 9.02 µM (inactive); with OVCAR-4, 16 µM (inactive); in the experiment with HOP-92, 7.28 µM (inactive); in the experiment on SNB-19, 12.2 µM (inactive); in the experiment with M14, 13.2 µM (inactive); in the experiment with ACHN it was 5.83 µM (inactive). Moreover, the results for the GI50 in the experiment with UACC-62 and in the experiment on SK-OV-3 were 6.32 µM (inactive) and 29 µM (inactive), respectively.

For the molecule `CC(C)(C)c1ccc2c(c1)CNCCNCc1cc(C(C)(C)C)ccc1OCC1(CO2)COc2ccc(C(C)(C)C)cc2CNCCNCc2cc(C(C)(C)C)ccc2OC1`, the GI50 is 1.27 µM (inactive) with EKVX; 0.394 µM (active) in the experiment on MDA-MB-231; 1.85 µM (inactive) with TK-10; 0.213 µM (active) in the experiment on K562; 1.41 µM (inactive) in the experiment on CAKI-1; 0.501 µM (active) in the experiment on SW-620. Further, the GI50 in the experiment with NCI-H226 was 1.55 µM (inactive); in the experiment on SR, 0.129 µM (active); in the experiment on SF-539, 0.933 µM (active); in the experiment with SK-MEL-2 it was 1.51 µM (inactive); in the experiment with IGROV-1 it was 1.28 µM (inactive); in the experiment with DU-145 it was 1.73 µM (inactive). Besides, the GI50 with HT-29 was 0.665 µM (active); in the experiment on OVCAR-4 it was 1.53 µM (inactive); in the experiment with HOP-92 it was 1.26 µM (inactive); in the experiment with SNB-19, 0.935 µM (active); in the experiment on M14, 0.467 µM (active); in the experiment with ACHN, 1.6 µM (inactive). Besides, the GI50 is 1.4 µM (inactive) in the experiment on UACC-62 and 1.84 µM (inactive) in the experiment with SK-OV-3.

In the case of `CCN(CC)CCNc1c(OC)cc(C)c2sc3ccccc3c(=O)c12`, the GI50 in the experiment on EKVX was 16.8 µM (inactive); with MDA-MB-231, 2.74 µM (inactive); in the experiment with TK-10, 8.59 µM (inactive); with K562 it was 1.71 µM (inactive); in the experiment with CAKI-1, 7.96 µM (inactive); in the experiment with SW-620, 5.35 µM (inactive). Moreover, the GI50 is 3.4 µM (inactive) in the experiment with NCI-H226; 3.15 µM (inactive) in the experiment with SR; 10.6 µM (inactive) in the experiment on SF-539; 12.6 µM (inactive) in the experiment with SK-MEL-2; 7.69 µM (inactive) in the experiment with IGROV-1; 11.9 µM (inactive) with DU-145. Moreover, the GI50 in the experiment with HT-29 was 2.61 µM (inactive); in the experiment with OVCAR-4 it was 5.3 µM (inactive); in the experiment on HOP-92, 16.9 µM (inactive); with SNB-19, 12.7 µM (inactive); with M14 it was 3.71 µM (inactive); with ACHN, 4.46 µM (inactive). Further, the GI50 in the experiment on UACC-62 is 1.79 µM (inactive); with SK-OV-3 it was 13.9 µM (inactive).

With `O=C(O)c1cccc(/N=N/c2c(S(=O)(=O)O)ccc3c2C(=O)c2ccccc2C3=O)c1O`, the GI50 in the experiment with EKVX, with MDA-MB-231, in the experiment on TK-10, with K562, in the experiment on CAKI-1 and in the experiment on SW-620 was > 100 µM (inactive) each time. Moreover, the GI50 in the experiment on NCI-H226, in the experiment on SR, in the experiment with SF-539, in the experiment with SK-MEL-2, in the experiment with IGROV-1 and in the experiment on DU-145 was > 100 µM (inactive) throughout. Besides, the GI50 with HT-29, in the experiment with OVCAR-4, in the experiment on HOP-92, in the experiment on SNB-19, in the experiment with M14 and with ACHN was > 100 µM (inactive) throughout. In addition, the GI50 in the experiment on UACC-62 and with SK-OV-3 was > 100 µM (inactive) each time.

Regarding `Cc1nn(C(=O)c2ccc(Cl)cc2)c2c1C(c1cccc([N+](=O)[O-])c1)SC(=N)N2` (stereo not given), the GI50 with EKVX, in the experiment with MDA-MB-231, in the experiment with TK-10, with K562, in the experiment with CAKI-1 and with SW-620 was > 10 µM (inactive) in each case. The GI50 in the experiment with NCI-H226, in the experiment with SR, with SF-539, with SK-MEL-2, with IGROV-1 and in the experiment on DU-145 was > 10 µM (inactive) each time. Besides, the GI50 with HT-29, in the experiment with OVCAR-4, in the experiment on HOP-92, in the experiment on SNB-19, with M14 and in the experiment on ACHN was > 10 µM (inactive) throughout. Also, the GI50 in the experiment on UACC-62 and in the experiment with SK-OV-3 was > 10 µM (inactive) in each case.

As to `Cc1cn(C2CC(N)C(C(=O)O)O2)c(=O)[nH]c1=O` (stereo not given), the GI50 in the experiment with EKVX, in the experiment with MDA-MB-231, in the experiment on TK-10, in the experiment with K562, in the experiment with CAKI-1 and in the experiment with SW-620 was > 100 µM (inactive) in each case. Besides, the GI50 in the experiment on NCI-H226, in the experiment on SR, in the experiment with SF-539, in the experiment on SK-MEL-2, with IGROV-1 and with DU-145 was > 100 µM (inactive) in each case. The GI50 in the experiment on HT-29, with OVCAR-4, in the experiment with HOP-92, in the experiment with SNB-19, in the experiment with M14 and in the experiment on ACHN was > 100 µM (inactive) in each case. The GI50 with UACC-62 and in the experiment with SK-OV-3 was > 100 µM (inactive) throughout.
